The text below walks through data of US8865725B2, “Substituted imidazopyrimidin-5(6H)-ones as allosteric modulators of MGLUR5 receptors” (Vanderbilt University, priority 2011, dated 2014).

Data set [1] has as its system amphetamine-induced hyperlocomotion. Put plainly: Reversal of amphetamine-induced hyperlocomotion. It is filed as in vivo, male Sprague-Dawley rats. The conditions noted are these: test compound by oral gavage in 20% HP-beta-CD; amphetamine sulfate 1 mg/kg sc; FIG. 4. The protocol: Locomotor activity was assessed as mean distance traveled (cm) in standard 16×16 photocell testing chambers measuring 43.2 cm (Length)×43.2 cm (Width)×30.5 cm (Height) (Med Associates, St. Albans, Vt.). Animals were habituated to individual activity chambers for at least 30 min prior to drug administration. Following administration of drug or vehicle, activity was recorded for a 90 minute time period. Data was expressed as the mean (±SEM) distance traveled recorded in 5 min intervals over the test period. The data was analyzed using repeated measures analysis of variance (ANOVA) followed by post-hoc testing using Dunnett's test, when appropriate. A difference was considered significant when p≦0.05. […]
The animals were habituated in Smart Open Field locomotor activity test chambers (Hamilton-Kinder, San Diego, Calif.) with 16×16 photobeams to automatically record locomotor activity for 30 min and then dosed with vehicle or test compound. […] At 60 min, all rats were injected subcutaneously with 1 mg/kg amphetamine or vehicle and then monitored for an additional 60 min. Animals are monitored for a total of 120 minutes. Data are expressed as changes in ambulation defined as total number of beam breaks per 5 min periods.
The data for the dose-response studies were analyzed by a between-group analysis of variance. […]

The next data set has as its target human mGluR5a receptor (Homo sapiens, UniProt P41594). Put plainly: Cell-based functional assay (Ca2+ mobilization, FDSS) for positive allosteric modulation of mGluR5. The conditions noted are these: for EC50: potentiation in presence of EC20 glutamate; for Emax: maximum % effect in concentration-response curve, as percent of response to maximally effective glutamate concentration. Here is the method: The mGluR5 activity was determined using the metabotropic glutamate receptor activity assays in human embryonic kidney cells as described herein, wherein the human embryonic kidney cells were transfected with human mGluR5. The compounds in Table I were synthesized with methods identical or analogous to those shown herein. The Synthetic Route Reference indicated in Table I refers to the Reaction Scheme number described above. The requisite starting materials were commercially available, described in the literature, or readily synthesized by one skilled in the art of organic synthesis.
Human mGluR5a cDNA in pCMV6-XL6 mammalian expression plasmid was purchased from OriGene Technologies, Inc. (catalogue number SC326357) and subcloned into pcDNA3.1(−). […] Monoclones were named for the species (“H” for human) plus the location on the plate (e.g. “10H”).
HEK cells transfected with the human mGluR5a receptor (H10H or H12H cell line) were plated at 15,000 cells/well in clear-bottomed poly-D-lysine-coated assay plates (BD Falcon) in glutamate-glutamine-free growth medium and incubated overnight at 37° C. and 5% CO2. Cell-lines used were either the H10H or H12H cell-lines expressing the human mGluR5 receptor. The following day, the growth medium was removed and the cells were washed with assay buffer containing 1× Hank's balanced salt solution (Invitrogen, Carlsbad, Calif.), 20 mM HEPES, 2.5 mM probenecid, pH 7.4 and left with 20 μL of this reagent. Following this step, the cells were loaded with calcium indicator dye, fluo-4 AM, to a final concentration of 2 μM and incubated for 40-45 min at 37° C. The dye solution was removed and replaced with assay buffer. Cell plates were held for 10-15 min at room temperature and were then loaded into the Functional Drug Screening System 6000 (FDSS 6000, Hamamatsu, Japan).
After establishment of a fluorescence baseline for about 3 seconds, the compounds of the present invention were added to the cells, and the response in cells was measured. 2.3 minutes later an EC20 concentration of the mGluR5 receptor agonist glutamate was added to the cells, and the response of the cells was measured for about 1.7 minutes. All test compounds were dissolved and diluted to a concentration of 10 mM in 100% DMSO and then serially diluted into assay buffer for a 2× stock solution in 0.6% DMSO; stock compounds were then added to the assay for a final DMSO concentration of 0.3% after the first addition to the assay well. Calcium fluorescence measures were recorded as fold over basal fluorescence; raw data was then normalized to the maximal response to glutamate.
The concentration-response curves of compounds of the present invention, obtained in the presence of EC20 of mGluR5 receptor agonist glutamate to determine positive allosteric modulation, were generated using Microsoft Excel with IDBS XLfit add-ins. The raw data file containing all time points was used as the data source in the analysis template. This was saved by the FDSS as a tab-delimitted text file. Data were normalized using a static ratio function (F/F0) for each measurement of the total 350 values per well divided by each well's initial value. Data was then reduced as to peak amplitudes (Max—Initial Min) using a time range that starts approximately 1 second after the glutamate EC20 addition and continues for approximately 40 seconds. This is sufficient time to capture the peak amplitude of the cellular Calcium response. Individual amplitudes were expressed as % EMax by multiplying each amplitude by 100 and then dividing the product by the mean of the amplitudes derived from the glutamate ECMax-treated wells. pEC50 values for test compounds were generated by fitting the normalized values versus the log of the test compound concentration (in mol/L) using a 4 parameter logistic equation where none of the parameters were fixed.

The mark [2] stands for this setting: HEK cells transfected with human mGluR5a (H10H or H12H), concentration in mol/L, read-out: pEC50 (converted).
Setting [3] is: HEK cells transfected with human mGluR5a (H10H or H12H), read-out: EC50.

Where two headings read alike, the source gives them in different places.

By melting point is commonly meant the temperature, or range, at which the solid turns liquid. For orientation: Emax means the size of the effect at its maximum, as opposed to the concentration needed.

Chain of human mGluR5a receptor (P41594 21-1180 isoform P41594-2 limits assumed): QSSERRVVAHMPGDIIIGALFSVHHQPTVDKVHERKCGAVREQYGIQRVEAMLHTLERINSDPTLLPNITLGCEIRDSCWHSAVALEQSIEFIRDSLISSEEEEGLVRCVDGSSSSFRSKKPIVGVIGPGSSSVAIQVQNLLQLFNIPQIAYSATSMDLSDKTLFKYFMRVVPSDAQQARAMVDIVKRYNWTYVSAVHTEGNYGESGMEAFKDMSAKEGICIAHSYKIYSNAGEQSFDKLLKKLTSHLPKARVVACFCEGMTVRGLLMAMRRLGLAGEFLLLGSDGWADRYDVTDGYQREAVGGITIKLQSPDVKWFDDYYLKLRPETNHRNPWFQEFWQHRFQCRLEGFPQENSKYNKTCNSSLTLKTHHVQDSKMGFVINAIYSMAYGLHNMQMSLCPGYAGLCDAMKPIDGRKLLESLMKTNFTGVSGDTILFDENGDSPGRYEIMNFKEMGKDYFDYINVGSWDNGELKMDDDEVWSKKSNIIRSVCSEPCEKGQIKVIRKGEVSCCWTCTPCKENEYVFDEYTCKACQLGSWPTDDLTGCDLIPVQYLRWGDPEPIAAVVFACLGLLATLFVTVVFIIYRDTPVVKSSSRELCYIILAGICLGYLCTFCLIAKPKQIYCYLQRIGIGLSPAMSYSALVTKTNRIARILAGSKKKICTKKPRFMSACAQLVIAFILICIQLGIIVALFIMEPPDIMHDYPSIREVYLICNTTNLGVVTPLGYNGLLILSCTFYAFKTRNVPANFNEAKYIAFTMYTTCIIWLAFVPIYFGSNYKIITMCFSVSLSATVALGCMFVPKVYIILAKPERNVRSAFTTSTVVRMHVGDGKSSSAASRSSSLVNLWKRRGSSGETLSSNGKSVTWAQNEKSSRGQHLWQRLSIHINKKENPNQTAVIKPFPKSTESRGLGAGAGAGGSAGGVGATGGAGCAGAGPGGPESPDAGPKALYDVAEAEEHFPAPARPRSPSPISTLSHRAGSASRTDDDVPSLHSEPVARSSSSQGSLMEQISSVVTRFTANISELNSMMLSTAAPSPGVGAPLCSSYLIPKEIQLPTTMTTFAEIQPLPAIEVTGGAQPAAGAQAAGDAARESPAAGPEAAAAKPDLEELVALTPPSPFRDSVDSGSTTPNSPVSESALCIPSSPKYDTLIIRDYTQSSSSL

As for `O=C1N(c2ccc(F)cc2)CCc2nc(COc3ccccc3)cn21` [6-(4-fluorophenyl)-2-(phenoxymethyl)-7,8-dihydroimidazo[1,2-c]pyrimidin-5(6H)-one], the “reversal of amphetamine-induced hyperlocomotion” value in data set [1] is recorded as “Dose-dependent results for reversal of amphetamine-induced hyperlocomotion”.
Take `O=C1N(c2cccc(F)c2)CCc2nc(COc3ccccc3)cn21` [compound 32]: the melting point was > 300 °C. In addition, on human mGluR5a receptor (EC50 (nM), HEK cells transfected with human mGluR5a (H10H or H12H)), the EC50 was determined as 226 nM. Also, the EC50 at human mGluR5a receptor (setting [2]) is 245 nM. Besides, at human mGluR5a receptor, the Emax worked out at 70%.
Take `O=C1N(c2ccc(F)c(F)c2)CCc2nc(COc3ccccc3)cn21` [compound 33]: the melting point is 165.4 °C. Besides, the EC50 on human mGluR5a receptor (setting [2]) was 102 nM. Also, the EC50 on human mGluR5a receptor (setting [3]) came to 97 nM. In addition, the Emax on human mGluR5a receptor amounted to 75%.
`O=C1N(c2ccc(F)cc2)CCc2nc(COc3cccc(F)c3)cn21` [compound 34]: the melting point came to 141.1 °C. Moreover, the EC50 at human mGluR5a receptor (setting [3]) worked out at 65 nM. Moreover, on human mGluR5a receptor, the Emax is 73%. Also, the EC50 on human mGluR5a receptor (pEC50, HEK cells transfected with human mGluR5a (H10H or H12H), concentration in mol/L) is 67.6 nM.
The compound `O=C1N(c2ccc(F)cc2)CCc2nc(COc3ccc(F)cc3)cn21` [compound 35, 2-(4-fluoro-phenoxymethyl)-6-(4-fluoro-phenyl)-7,8-dihydro-6H-imidazo[1,2-c]pyrimidin-5-one] yielded a melting point of 182.3 °C. Also, the EC50 on human mGluR5a receptor (setting [2]) is 170 nM. Besides, the EC50 at human mGluR5a receptor (setting [3]) came to 188 nM. Besides, the Emax at human mGluR5a receptor is 68%.
Compound `Cc1cccc(OCc2cn3c(n2)CCN(c2ccc(F)cc2)C3=O)c1` [compound 37, 6-(4-fluoro-phenyl)-2-m-tolyloxymethyl-7,8-dihydro-6H-imidazo[1,2-c]pyrimidin-5-one] registered a melting point of 169.3 °C. Besides, the EC50 on human mGluR5a receptor (setting [2]) is 204 nM. The EC50 on human mGluR5a receptor (setting [3]) came to 191 nM. At human mGluR5a receptor, this compound had an Emax of 48%.
For `O=C1N(c2ccc(F)cn2)CCc2nc(COc3ccccc3)cn21` [compound 39], in that order: 135 °C, 316 nM, 389 nM and 64%.
On the same counts, the results for `Cc1cc(N2CCc3nc(COc4ccccc4)cn3C2=O)ncc1F` [compound 40] are 196.5 °C, 269 nM, 351 nM and 61%.
Turning to `O=C1N(c2ccc(F)cc2)CCc2nc(COc3ccccc3)c(Cl)n21` [compound 42, 3-chloro-6-(4-fluoro-phenyl)-2-phenoxymethyl-7,8-dihydro-6H-imidazo[1,2-c]pyrimidin-5-one], the melting point was 200.1 °C. Further, the EC50 at human mGluR5a receptor (setting [3]) was > 30200 nM. Further, the Emax on human mGluR5a receptor was determined as 17%.
Consider `Cc1c(COc2ccccc2)nc2n1C(=O)N(c1ccc(F)cc1)CC2` [compound 44, 6-(4-fluoro-phenyl)-3-methyl-2-phenoxymethyl-7,8-dihydro-6H-imidazo[1,2-c]pyrimidin-5-one], for which the melting point amounted to 160.4 °C. Also, the EC50 on human mGluR5a receptor (setting [3]) was > 30200 nM. At human mGluR5a receptor, this compound returned an Emax of 20%.
